These compounds were tested against T1, human RXFP1 (Homo sapiens, UniProt Q9HBX9) (assay: hRXFP1 HEK293 cAMP assay (HTRF)). Conditions: HEK293 cells stably expressing human RXFP1; 30 min at rt; intracellular cAMP by HTRF.
T1 construct: expressed in transfected cells
T1 sequence (Q9HBX9 1-757): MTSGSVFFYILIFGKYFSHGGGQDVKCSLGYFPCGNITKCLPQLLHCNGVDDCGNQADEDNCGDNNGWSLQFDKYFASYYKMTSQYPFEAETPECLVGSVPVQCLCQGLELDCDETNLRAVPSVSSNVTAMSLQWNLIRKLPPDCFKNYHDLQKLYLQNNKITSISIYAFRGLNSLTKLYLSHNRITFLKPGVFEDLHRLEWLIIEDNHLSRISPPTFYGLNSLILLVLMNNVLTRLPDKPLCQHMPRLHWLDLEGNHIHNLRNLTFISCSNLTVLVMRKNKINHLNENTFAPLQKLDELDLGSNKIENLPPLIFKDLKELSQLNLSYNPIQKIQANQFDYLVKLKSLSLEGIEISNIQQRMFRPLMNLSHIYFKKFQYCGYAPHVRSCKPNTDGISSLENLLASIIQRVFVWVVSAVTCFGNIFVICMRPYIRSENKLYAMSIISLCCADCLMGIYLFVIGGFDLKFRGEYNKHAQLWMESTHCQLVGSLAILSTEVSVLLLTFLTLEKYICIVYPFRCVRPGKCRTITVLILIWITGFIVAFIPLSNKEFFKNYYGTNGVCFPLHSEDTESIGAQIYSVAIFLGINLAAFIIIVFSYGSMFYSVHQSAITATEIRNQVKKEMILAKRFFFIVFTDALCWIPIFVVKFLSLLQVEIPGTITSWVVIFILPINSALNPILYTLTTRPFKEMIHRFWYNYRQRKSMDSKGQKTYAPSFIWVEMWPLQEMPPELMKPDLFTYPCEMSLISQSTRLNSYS
Format: cell-based
How it was run: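 HEK293 cells stably expressing human RXFP1 treated 30 min at rt with compound (0.010 nM to 50 μM, 2% DMSO) in HBSS/HEPES buffer with 0.5 mM IBMX. Intracellular cAMP measured by HTRF (665/590 nm ratio) against a cAMP standard curve; potency fitted by 4-parameter logistic.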

In order of falling EC50:
1. COc1ccc(C(=O)N2CCC(O)CC2)cc1C(=O)Nc1c(C(=O)Nc2ccc(F)c(C(F)(F)F)c2)sc2cc(Cl)ncc12 [Example 241, 6-chloro-N-(4-fluoro-3-(trifluoromethyl)phenyl)-3-(5-(4-hydroxy-piperidine-1-carbonyl)-2-methoxy-benzamido) thieno[3,2-c]pyridine-2-carboxamide]  3900 nM
2. COc1ccc(C2CCN(S(C)(=O)=O)C2)cc1C(=O)Nc1c(C(=O)Nc2ccc(F)c(C(F)(F)F)c2)sc2cc(C(F)(F)F)ccc12 (stereo not shown) [Example 148, N-(4-fluoro-3-(trifluoromethyl)phenyl)-3-(2-methoxy-5-(1-(methylsulfonyl)pyrrolidin-3-yl)benzamido)-6-(trifluoromethyl) benzo[b] thiophene-2-carboxamide]  2240 nM
3. COc1ccc(C2CCCN(CC(O)CO)C2)cc1C(=O)Nc1c(C(=O)Nc2ccc(F)c(C(F)(F)F)c2)sc2cc(C(F)(F)F)ccc12 (stereo not shown) [Example 102, 3-(5-(1-(2,3-dihydroxypropyl)piperidin-3-yl)-2-methoxy-benzamido)-N-(4-fluoro-3-(trifluoromethyl)phenyl)-6-(trifluoromethyl) benzo[b] thiophene-2-carboxamide]  2230 nM
4. COc1ccc(C2CCN(CCS(C)(=O)=O)C2)cc1C(=O)Nc1c(C(=O)Nc2ccc(F)c(C(F)(F)F)c2)sc2cc(C(F)(F)F)ccc12 (single isomer, unassigned) [Example 149, N-(4-fluoro-3-(trifluoromethyl)phenyl)-3-(2-methoxy-5-(1-(2-(methylsulfonyl)ethyl)pyrrolidin-3-yl)benzamido)-6-(trifluoromethyl) benzo[b] thiophene-2-carboxamide]  1200 nM
5. COc1ccc(C2CC3(C2)CN(S(C)(=O)=O)C3)cc1C(=O)Nc1c(C(=O)Nc2ccc(F)c(C(F)(F)F)c2)sc2cc(C(F)(F)F)ccc12 [Example 204, N-(4-fluoro-3-(trifluoromethyl)phenyl)-3-(2-methoxy-5-(2-(methylsulfonyl)-2-azaspiro[3.3]heptan-6-yl)benzamido)-6-(trifluoromethyl) benzo[b] thiophene-2-carboxamide]  1170 nM
6. COc1ccc(-c2cc(CN(C)C)on2)cc1C(=O)Nc1c(C(=O)Nc2ccc(F)c(C(F)(F)F)c2)sc2cc(C(F)(F)F)ccc12 [Example 273, 3-(5-(5-((dimethylamino)methyl)isoxazol-3-yl)-2-methoxy-benzamido)-N-(4-fluoro-3-(trifluoromethyl)phenyl)-6-(trifluoromethyl) benzo[b] thiophene-2-carboxamide]  857 nM
7. COc1ccc(C2CCCC(NC3COC3)C2)cc1C(=O)Nc1c(C(=O)Nc2ccc(F)c(C(F)(F)F)c2)sc2cc(C(F)(F)F)ccc12 (single isomer, unassigned) [Example 60, N-(4-fluoro-3-(trifluoromethyl)phenyl)-3-(2-methoxy-5-(3-(oxetan-3-ylamino)cyclohexyl)benzamido)-6-(trifluoromethyl) benzo[b] thiophene-2-carboxamide]  743 nM
8. COc1ccc(C2=NOC3CC(NC(=O)C(C)(C)O)CC23)cc1C(=O)Nc1c(C(=O)Nc2ccc(F)c(C(F)(F)F)c2)sc2cc(C(F)(F)F)ccc12 (single isomer, unassigned) [Example 262, N-[4-fluoro-3-(trifluoromethyl)phenyl]-3-{5-[5-(2-hydroxy-2-methyl-propanamido)-3aH,4H,5H,6H, 6aH-cyclopenta[d] [1,2]oxazol-3-yl]-2-methoxy-benzamido}-6-(trifluoromethyl)-1-benzothiophene-2-carboxamide]  723 nM
9. COc1ccc(C2CCCN(CC(N)=O)C2)cc1C(=O)Nc1c(C(=O)Nc2ccc(F)c(C(F)(F)F)c2)sc2cc(C(F)(F)F)ccc12 (stereo not shown) [Example 83, 3-(5-(1-(2-amino-2-oxoethyl)piperidin-3-yl)-2-methoxy-benzamido)-N-(4-fluoro-3-(trifluoromethyl)phenyl)-6-(trifluoromethyl) benzo[b] thiophene-2-carboxamide]  608 nM
10. COc1ccc(C2CCCNC2)cc1C(=O)Nc1c(C(=O)Nc2ccc(F)c(C(F)(F)F)c2)sc2cc(C(F)(F)F)ccc12 (single isomer, unassigned) [Example 77, N-(4-fluoro-3-(trifluoromethyl)phenyl)-3-(2-methoxy-5-(piperidin-3-yl)benzamido)-6-(trifluoromethyl) benzo[b] thiophene-2-carboxamide]  469 nM
11. COc1ccc(N2CCCC(CC(=O)O)C2)cc1C(=O)Nc1c(C(=O)Nc2ccc(F)c(C(F)(F)F)c2)sc2cc(C(F)(F)F)ccc12 (single isomer, unassigned) [Example 64, 2-(1-(3-((2-((4-fluoro-3-(trifluoromethyl)phenyl)carbamoyl)-6-(trifluoromethyl)benzo[b]thiophen-3-yl)carbamoyl)-4-methoxyphenyl)piperidin-3-yl)acetic acid]  293 nM
12. O=C(Nc1c(C(=O)Nc2ccc(F)c(C(F)(F)F)c2)sc2cc(C(F)(F)F)ccc12)c1cc(C2=NOC3COCC23)ccc1F (stereo not shown) [Example 256, 3-(5-{3aH,4H,6H,6aH-furo[3,4-d][1,2]oxazol-3-yl}-2-fluorobenzamido)-N-[4-fluoro-3-(trifluoromethyl)phenyl]-6-(trifluoromethyl)-1-benzothiophene-2-carboxamide]  239 nM
13. COc1ccc(-c2cc(C(=O)O)ccc2F)cc1C(=O)Nc1c(C(=O)Nc2ccc(F)c(C(F)(F)F)c2)sc2cc(C(F)(F)F)ccc12 [Example 128, 6-fluoro-3′-((2-((4-fluoro-3-(trifluoromethyl)phenyl)carbamoyl)-6-(trifluoromethyl)benzo[b]thiophen-3-yl)carbamoyl)-4′-methoxy-[1,1′-biphenyl]-3-carboxylic acid]  237 nM
14. COc1ccc(C2CCN(C(=O)C(C)(C)CO)C2)cc1C(=O)Nc1c(C(=O)Nc2ccc(F)c(C(F)(F)F)c2)sc2cc(C(F)(F)F)ccc12 (single isomer, unassigned) [Example 150, N-(4-fluoro-3-(trifluoromethyl)phenyl)-3-(5-(1-(3-hydroxy-2,2-dimethyl-propanoyl)pyrrolidin-3-yl)-2-methoxy-benzamido)-6-(trifluoromethyl) benzo[b] thiophene-2-carboxamide]  228 nM
15. COc1ccc(C2CCC(C)(O)CC2)cc1C(=O)Nc1c(C(=O)Nc2ccc(F)c(C(F)(F)F)c2)sc2cc(C(F)(F)F)ccc12 (single isomer, unassigned) [Example 38, N-(4-fluoro-3-(trifluoromethyl)phenyl)-3-(5-(4-hydroxy-4-methylcyclohexyl)-2-methoxybenzamido)-6-(trifluoromethyl)benzo[b]thiophene-2-carboxamide]  194 nM
16. COc1ccc(C2CC2C(=O)N2CC(S(C)(=O)=O)C2)cc1C(=O)Nc1c(C(=O)Nc2ccc(F)c(C(F)(F)F)c2)sc2cc(C(F)(F)F)ccc12 (single isomer, unassigned) [Example 168, N-[4-fluoro-3-(trifluoromethyl)phenyl]-3-{5-[2-(3-methane-sulfonylazetidine-1-carbonyl)cyclopropyl]-2-methoxy-benzamido}-6-(trifluoromethyl)-1-benzothiophene-2-carboxamide]  176 nM
17. COc1ccc(N2CCCC(C(=O)O)C2)cc1C(=O)Nc1c(C(=O)Nc2ccc(F)c(C(F)(F)F)c2)sc2cc(C(F)(F)F)ccc12 (single isomer, unassigned) [Example 5, 1-(3-((2-((4-fluoro-3-(trifluoromethyl)phenyl)carbamoyl)-6-(trifluoromethyl)benzo[b]thiophen-3-yl)carbamoyl)-4-methoxyphenyl) piperidine-3-carboxylic acid]  150 nM
18. COc1ccc(-c2cc(S(=O)(=O)NC(C)(C)C)ccc2F)cc1C(=O)Nc1c(C(=O)Nc2ccc(F)c(C(F)(F)F)c2)sc2cc(C(F)(F)F)ccc12 [Example 111, 3-(5′-(N-(tert-butyl)sulfamoyl)-2′-fluoro-4-methoxy-[1,1′-biphenyl]-3-carboxamido)-N-(4-fluoro-3-(trifluoromethyl)phenyl)-6-(trifluoromethyl) benzo[b] thiophene-2-carboxamide]  28.3 nM
19. COc1ccc(-c2cccc(C(NC(=O)C3CCOCC3)C(=O)O)c2)cc1C(=O)Nc1c(C(=O)Nc2ccc(F)c(C(F)(F)F)c2)sc2cc(C(F)(F)F)ccc12 (single isomer, unassigned) [Example 25, 2-(3′-((2-((4-fluoro-3-(trifluoromethyl)phenyl)carbamoyl)-6-(trifluoromethyl)benzo[b]thiophen-3-yl)carbamoyl)-4′-methoxy-[1, 1′-biphenyl]-3-yl)-2-(tetrahydro-2H-pyran-4-carboxamido) acetic acid]  3.8 nM

Source: US20260265233A1, “BENZOTHIOPHENE DERIVATIVES AS RXFP1 AGONISTS” (BRISTOL-MYERS SQUIBB COMPANY, priority 2021, published 2026)
